Measurements: PubChem BioAssay AID248 (DTP/NCI, 2004)
Toxic doses and inconclusive results are not listed. Rule as the data show it: active = T/C of 150% or more; inactive = T/C below 125%.

System: L1210 leukemia ip in BDF1 mice, survival T/C
Assay: NCI In Vivo Anticancer Drug Screen. Data for tumor model L1210 Leukemia (intraperitoneal) in B6D2F1 (BDF1) mice
Details: endpoint: mean survival time, higher = longer survival
In short: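 Mice bearing the transplanted tumor received compound or vehicle. Survival of the treated group was divided by that of the vehicle-treated control group to give the ratio.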

[1] = dose: 100.0 mg/kg/injection, schedule: Q01DX001 (ip), vehicle: saline
[2] = dose: 200.0 mg/kg/injection, schedule: Q01DX001 (ip), vehicle: saline
[3] = dose: 400.0 mg/kg/injection, schedule: Q01DX001 (ip), vehicle: saline
[4] = dose: 100.0 mg/kg/injection, schedule: Q04DX003 (ip), vehicle: saline
[5] = dose: 200.0 mg/kg/injection, schedule: Q04DX003 (ip), vehicle: saline
[6] = dose: 400.0 mg/kg/injection, schedule: Q04DX003 (ip), vehicle: saline
[7] = dose: 100.0 mg/kg/injection, schedule: Q01DX009 (ip), vehicle: saline with Tween-80
[8] = dose: 200.0 mg/kg/injection, schedule: Q01DX009 (ip), vehicle: saline with Tween-80
[9] = dose: 100.0 mg/kg/injection, schedule: Q04DX002 (ip), vehicle: Klucel (hydroxypropylcellulose) (HPC)
[10] = dose: 200.0 mg/kg/injection, schedule: Q04DX002 (ip), vehicle: Klucel (hydroxypropylcellulose) (HPC)
[11] = dose: 400.0 mg/kg/injection, schedule: Q04DX002 (ip), vehicle: Klucel (hydroxypropylcellulose) (HPC)
[12] = dose: 100.0 mg/kg/injection, schedule: Q01DX009 (ip), vehicle: Klucel (hydroxypropylcellulose) (HPC)
[13] = dose: 200.0 mg/kg/injection, schedule: Q01DX009 (ip), vehicle: Klucel (hydroxypropylcellulose) (HPC)
[14] = dose: 400.0 mg/kg/injection, schedule: Q01DX009 (ip), vehicle: Klucel (hydroxypropylcellulose) (HPC)
[15] = dose: 100.0 mg/kg/injection, schedule: Q01DX009 (ip), vehicle: saline
[16] = dose: 200.0 mg/kg/injection, schedule: Q01DX009 (ip), vehicle: saline
[17] = dose: 400.0 mg/kg/injection, schedule: Q01DX009 (ip), vehicle: saline

Measured: T/C

COc1ccc2[nH]c3c(C)c4c(c(C)c3c2c1)CN(C)CC4
inactive: dose: 29.0 mg/kg/injection, schedule: Q01DX Z (ip), vehicle: saline 96 % of control | dose: 44.0 mg/kg/injection, schedule: Q01DX Z (ip), vehicle: saline 98 % of control | dose: 66.0 mg/kg/injection, schedule: Q01DX Z (ip), vehicle: saline 102 % of control | [1] 105 % of control | dose: 100.0 mg/kg/injection, schedule: Q01DX Z (ip), vehicle: saline 98 % of control | dose: 150.0 mg/kg/injection, schedule: Q01DX Z (ip), vehicle: saline 100 % of control | [2] 100 % of control | [3] 102 % of control

COC(=O)C1=COC(C)C2CN3CCc4c([nH]c5cc(OC)c(OC)cc45)C3CC12 (centres undefined)
inactive: dose: 50.0 mg/kg/injection, schedule: Q01DX Z (ip), vehicle: carboxymethylcellulose (CMC) 103 % of control | dose: 100.0 mg/kg/injection, schedule: Q01DX Z (ip), vehicle: carboxymethylcellulose (CMC) 105 % of control | dose: 200.0 mg/kg/injection, schedule: Q01DX Z (ip), vehicle: carboxymethylcellulose (CMC) 100 % of control | dose: 300.0 mg/kg/injection, schedule: Q01DX Z (ip), vehicle: carboxymethylcellulose (CMC) 105 % of control

CCS(=O)(=O)c1ccc(C(=O)N=[N+]=[N-])cc1
inactive: dose: 100.0 mg/kg/injection, schedule: Q01DX001 (ip), vehicle: carboxymethylcellulose (CMC) 92 % of control | dose: 200.0 mg/kg/injection, schedule: Q01DX001 (ip), vehicle: carboxymethylcellulose (CMC) 97 % of control | dose: 400.0 mg/kg/injection, schedule: Q01DX001 (ip), vehicle: carboxymethylcellulose (CMC) 105 % of control

CCC1(/C=C/C(C)C)C(=O)NC(=O)NC1=O
inactive: dose: 75.0 mg/kg/injection, schedule: Q01DX001 (ip), vehicle: saline 105 % of control | dose: 150.0 mg/kg/injection, schedule: Q01DX001 (ip), vehicle: saline 93 % of control

Nc1ccc(OCc2ccc(S(=O)(=O)F)c(Cl)c2)c(Cl)c1
inactive: dose: 100.0 mg/kg/injection, schedule: Q01DX009 (ip), vehicle: other 91 % of control | [4] 93 % of control | dose: 200.0 mg/kg/injection, schedule: Q01DX009 (ip), vehicle: other 92 % of control | [5] 95 % of control | [6] 98 % of control

Cc1ccc(C(=O)O)cc1
inactive: [7] 90 % of control | [8] 88 % of control

O=C1/C(=C\c2ccc([N+](=O)[O-])cc2)N2CCC1CC2
inactive: [9] 102 % of control | [10] 94 % of control | [11] 105 % of control

COC(=O)CCCCCCCCC(C)c1ccccc1 (centres undefined)
inactive: [12] 98 % of control | [4] 103 % of control | [13] 92 % of control | [5] 89 % of control | [14] 97 % of control | [6] 92 % of control

COc1ccc([N+](=O)[O-])c(O)c1C
inactive: [7] 90 % of control | [8] 96 % of control | dose: 400.0 mg/kg/injection, schedule: Q01DX009 (ip), vehicle: saline with Tween-80 106 % of control

Cc1cc(NS(=O)(=O)c2ccccc2)c2c(c1NS(=O)(=O)c1ccccc1)CC=CC2
inactive: [12] 103 % of control | dose: 100.0 mg/kg/injection, schedule: Q04DX003 (ip), vehicle: Klucel (hydroxypropylcellulose) (HPC) 103 % of control | [13] 100 % of control | dose: 200.0 mg/kg/injection, schedule: Q04DX003 (ip), vehicle: Klucel (hydroxypropylcellulose) (HPC) 95 % of control | [14] 111 % of control | dose: 400.0 mg/kg/injection, schedule: Q04DX003 (ip), vehicle: Klucel (hydroxypropylcellulose) (HPC) 94 % of control

OCCN1CCC2(CC1)SSC1(CCN(CCO)CC1)S2
inactive: dose: 50.0 mg/kg/injection, schedule: Q01DX009 (ip), vehicle: saline with Tween-80 104 % of control | [7] 98 % of control | dose: 100.0 mg/kg/injection, schedule: Q04DX003 (ip), vehicle: saline with Tween-80 100 % of control | [8] 93 % of control | dose: 200.0 mg/kg/injection, schedule: Q04DX003 (ip), vehicle: saline with Tween-80 104 % of control

[CH3][Pb]([CH3])([CH3])[NH]C#N
inactive: dose: 5.0 mg/kg/injection, schedule: Q04DX003 (ip), vehicle: saline 101 % of control | dose: 10.0 mg/kg/injection, schedule: Q04DX003 (ip), vehicle: saline 86 % of control

COc1cc(/C=C(/C#N)[N+](=O)[O-])ccc1O
inactive: dose: 3.12 mg/kg/injection, schedule: Q01DX009 (ip), vehicle: DMSO 93 % of control | dose: 6.25 mg/kg/injection, schedule: Q01DX009 (ip), vehicle: DMSO 91 % of control | dose: 12.5 mg/kg/injection, schedule: Q01DX009 (ip), vehicle: DMSO 94 % of control | dose: 12.5 mg/kg/injection, schedule: Q04DX003 (ip), vehicle: DMSO 102 % of control | dose: 25.0 mg/kg/injection, schedule: Q01DX009 (ip), vehicle: DMSO 89 % of control | dose: 25.0 mg/kg/injection, schedule: Q04DX003 (ip), vehicle: DMSO 114 % of control | dose: 50.0 mg/kg/injection, schedule: Q01DX009 (ip), vehicle: DMSO 93 % of control | dose: 50.0 mg/kg/injection, schedule: Q04DX003 (ip), vehicle: DMSO 101 % of control

CC(=O)Nc1ccc(-c2ccccc2)cc1
inactive: dose: 100.0 mg/kg/injection, schedule: Q01DX001 (ip), vehicle: Klucel (hydroxypropylcellulose) (HPC) 99 % of control | [7] 110 % of control | dose: 200.0 mg/kg/injection, schedule: Q01DX001 (ip), vehicle: Klucel (hydroxypropylcellulose) (HPC) 99 % of control | [8] 86 % of control

Nc1nc(N)nc(-c2ccc(Cl)cc2)n1
inactive: dose: 25.0 mg/kg/injection, schedule: Q01DX001 (ip), vehicle: saline with Tween-80 96 % of control | dose: 50.0 mg/kg/injection, schedule: Q01DX001 (ip), vehicle: saline with Tween-80 98 % of control | dose: 100.0 mg/kg/injection, schedule: Q01DX001 (ip), vehicle: saline with Tween-80 101 % of control

Cn1c(O)c(C=N)c(=O)[nH]c1=O
inactive: [15] 86 % of control | [4] 90 % of control | [16] 88 % of control | [5] 92 % of control | [17] 86 % of control | [6] 90 % of control

CCN(CC)Cc1ccccc1COC(=O)c1ccc(Cl)cc1
inactive: [9] 96 % of control | [10] 101 % of control | [11] 88 % of control

NNCCC(=O)O
inactive: [1] 107 % of control | [2] 102 % of control | [3] 115 % of control

FCCNCCF
inactive: dose: 5.0 mg/kg/injection, schedule: Q01DX001 (ip), vehicle: saline 101 % of control | dose: 10.0 mg/kg/injection, schedule: Q01DX001 (ip), vehicle: saline 112 % of control

COC(=O)C(COS(=O)(=O)c1ccccc1)NC(=O)OCc1ccccc1 (centres undefined)
inactive: [15] 100 % of control | [4] 92 % of control | [16] 98 % of control | [5] 97 % of control | [17] 96 % of control | [6] 95 % of control
